For one assay, the system named is E. tarda. The experiment in a line: Host resistance assay, Experiment One: co-injection of bacteria and peptide. It is filed as in vivo, Medaka. The note with it: co-injected with Peptide A (0.68 mM, 1 μl) and E. tarda. The method, then: FIG. 11A is a plot showing the effect of Peptide A on viability of cultured mammalian cells, incubated for 48 h in the presence of Peptide A at different concentrations (μg/ml), as determined by MTT assay. Cell viability represented as peptide treated cell numbers over medium-only control. Statistically significant difference as compared to controls (*: p<0.05, **: p<0.01, n=4). FIG. 11B is a plot showing the ability of Peptide A to protect medaka from lethal challenge of E. tarda ([…]). Medaka was injected with 1 μl of Peptide A (0.68 mM), with 1 μl of E. tarda (10^7 CFU/ml) and Peptide A (0.68 mM) mixture, or with E. tarda alone (1 μl of E. tarda:10^7 CFU/ml). […] 20 fish per group. Log-rank (Mantel-Cox) test was applied for the comparison of survival curves (**: p<0.01).
The efficacy of the synthesized AMP to protect medaka against infection was characterized using host resistance assays with intraperitoneal (i.p.) injection of bacteria using a micro-injection machine (PV820 Pneumatic PicoPump). […] The number of dead fish was counted on a daily basis until two weeks after the injections.

The subject of another assay is Streptococcus Faecalis. It is filed as cell-based.
Assay [1] deals with panel of Gram-positive and Gram-negative bacteria. The experiment in a line: Antibacterial activity against a panel of bacteria (summary). The conditions noted are these: including beta-lactam resistant bacteria. The assay is classed as cell-based.
Method: The antibacterial activity of the Peptide A against a panel of Gram-positive and Gram-negative bacteria (FIG. 5A, 5B and Table 2) was determined.
(§1) Bacteria were grown in their respective media (Table 2 above) overnight at 37° C. or room temperature with constant shaking and then diluted to 10^6 CFU/ml in their respective medium. Stock solutions of peptides at 0.68 mM were prepared in distilled water. Bacteria and peptide were incubated (50 μl: 50 μl) to make the final peptide concentrations (0.68, 3.4, 6.8, 13.7, 34.1, 68.3, 136.5 μM) in a 96-microtitre plate and incubated for 24 h with constant shaking. […] Absorbance at 600 nm was detected every 3 h up to 24 h to obtain the growth curves. The minimal inhibition concentration (MIC) was defined as the lowest concentration of an antimicrobial agent that could inhibit the growth of bacteria after overnight incubation.
For assay [2], the system named is Gram positive (S. aureus) and negative (E. coli) bacteria. The experiment in a line: Toxicity screen of synthesized shortlisted SCPs against bacteria. The assay is classed as cell-based. The note with it: synthesized peptides. From the text: Of the remaining SCPs, 1519 (24%) satisfy the CAMP prediction algorithm for AMPs as potential AMPs (FIG. 3). In order to increase the accuracy of prediction, the inventors further limited the shortlisted AMPs to amphipathic and cationic peptides, since they account for the majority of currently known AMPs. There are 430 peptides from the SCP database that satisfied these criteria. To assess the accuracy of the AMP prediction, the inventors synthesized 53 of the shortlisted SCPs and tested their toxicity against both Gram positive (S. aureus) and negative (E. coli) bacteria.

Each structure is given as a SMILES string. Peptide text beside a SMILES is read from it.

Method for Streptococcus Faecalis: MIC denotes the lowest concentration of an antimicrobial agent that can inhibit the growth of bacteria after overnight incubation.
as §1

`CC[C@H](C)[C@H](N)C(=O)N[C@@H](CCCNC(=N)N)C(=O)N[C@H](C(=O)N[C@H](C(=O)N[C@@H](CC(C)C)C(=O)N[C@@H](CCCNC(=N)N)C(=O)N[C@@H](C)C(=O)N[C@@H](CCC(N)=O)C(=O)NCC(=O)N[C@@H](C)C(=O)N[C@@H](CC(C)C)C(=O)N[C@@H](CCCCN)C(=O)N[C@H](C(=O)O)[C@@H](C)CC)[C@@H](C)CC)[C@@H](C)CC` [Peptide A, IRIILRAQGALKI] (H-IRIILRAQGALKI-OH; N-terminus and C-terminus assumed) displayed a medaka survival rate in the assay on E. tarda of 80%. The same molecule came in with an MICs in the assay with Streptococcus Faecalis of 34.1 µM. Moreover, the “effect on antibiotic resistant strains” value in assay [1] was “effective on a number of antibiotic resistant strains”. For the same molecule, the “toxicity / antimicrobial activity against bacteria” value in assay [2] is “demonstrated toxicity against both Gram positive and negative bacteria”.
